Columns and labels:
Test in all cases: DBD combination treatment, viability enhancement factor
Format in all cases: cell-based, human
[1] = tested on: GS186coreNS; settings: GS186coreNS (p18), labelled therapy combined with crystalline DBD polymorph
Procedure: (§1) Crystalline DBD polymorph treatment was combined with chemotherapy, radiotherapy and targeted inhibitors to determine whether the crystalline DBD polymorph form could: enhance efficacy of the conventional therapies; enhance efficacy when combined with newer ‘targeted’ therapies; or would make (a subset of) cultures more sensitive to this treatment.
(§2) Therefore, cultures were treated with: • a.

[2] = tested on: GS257NS; settings: GS257NS (p16 + p17), labelled therapy combined with crystalline DBD polymorph;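 note: DBD at its own IC50 and half IC50 determined at Day 5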
Procedure: as §1, §2

[3] = tested on: GS279coreNS; settings: Day 5; GS279coreNS (p12 + p13); labelled therapy combined with crystalline DBD polymorph
Procedure: as §1, §2

[4] = tested on: GS102periNS; settings: GS102periNS (p20 + p21), labelled therapy combined with crystalline DBD polymorph
Procedure: as §1, §2

[5] = tested on: GS245NS; settings: GS245NS (p16 + p15), labelled therapy combined with crystalline DBD polymorph
Procedure: as §1, §2

[6] = tested on: GS203NS; settings: Day 8; GS203NS (P19 + p18); labelled therapy combined with crystalline DBD polymorph
Procedure: as §1, §2

[7] = tested on: GS224NS; settings: GS224NS (p17), labelled therapy combined with crystalline DBD polymorph
Procedure: as §1, §2

[8] = tested on: GS281NS; settings: GS281NS (p15), labelled therapy combined with crystalline DBD polymorph
Procedure: as §1, §2

[9] = tested on: GS279periNS; settings: GS279periNS (p16 + p15), labelled therapy combined with crystalline DBD polymorph;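 note: DBD at its own IC50 and half IC50 determined at Day 5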
Procedure: as §1, §2

[10] = tested on: GS289NS; settings: GS289NS (p15 + p16), labelled therapy combined with crystalline DBD polymorph;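 note: DBD at its own IC50 and half IC50 determined at Day 5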
Procedure: as §1, §2

[11] = tested on: GS365NS; settings: GS365NS (p17 + p16), labelled therapy combined with crystalline DBD polymorph
Procedure: as §1, §2

[12] = tested on: GS184NS; settings: GS184NS (p18 + p19), labelled therapy combined with crystalline DBD polymorph;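 note: DBD at its own IC50 and half IC50 determined at Day 5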
Procedure: as §1, §2

[13] = tested on: GS324coreNS; settings: GS324coreNS (p19), labelled therapy combined with crystalline DBD polymorph
Procedure: as §1, §2

[14] = tested on: GS359NS; settings: GS359NS (p15 + p14), labelled therapy combined with crystalline DBD polymorph
Procedure: as §1, §2

[15] = tested on: GS323periNS; settings: Day 5; GS323periNS (p20 + p19); labelled therapy combined with crystalline DBD polymorph
Procedure: as §1, §2

[16] = tested on: GS104periNS; settings: GS104periNS (p21 + p22), labelled therapy combined with crystalline DBD polymorph
Procedure: as §1, §2

[17] = tested on: GS304NS; settings: GS304NS (p16), labelled therapy combined with crystalline DBD polymorph
Procedure: as §1, §2

[18] = tested on: GS249NS; settings: GS249NS (p17), labelled therapy combined with crystalline DBD polymorph
Procedure: as §1, §2

[19] = tested on: GS186periNS; settings: GS186periNS (p15), labelled therapy combined with crystalline DBD polymorph
Procedure: as §1, §2

[20] = tested on: GS261NS; settings: GS261NS (p13), labelled therapy combined with crystalline DBD polymorph
Procedure: as §1, §2

SMILES	enhancement factor (viability % of most effective monotherapy divided by viability % of combination) ([1]; Day 5)	enhancement factor (viability % of most effective monotherapy divided by viability % of combination) ([1]; Day 8)	enhancement factor (viability % of most effective monotherapy divided by viability % of combination) ([2]; Day 5)	enhancement factor (viability % of most effective monotherapy divided by viability % of combination) ([2]; Day 8)	enhancement factor (viability % of most effective monotherapy divided by viability % of combination) [3]	enhancement factor (viability % of most effective monotherapy divided by viability % of combination) ([4]; Day 5)	enhancement factor (viability % of most effective monotherapy divided by viability % of combination) ([4]; Day 8)	enhancement factor (viability % of most effective monotherapy divided by viability % of combination) ([5]; Day 5)	enhancement factor (viability % of most effective monotherapy divided by viability % of combination) ([5]; Day 8)	enhancement factor (viability % of most effective monotherapy divided by viability % of combination) ([7]; Day 5)	enhancement factor (viability % of most effective monotherapy divided by viability % of combination) ([7]; Day 8)	enhancement factor (viability % of most effective monotherapy divided by viability % of combination) ([8]; Day 5)	enhancement factor (viability % of most effective monotherapy divided by viability % of combination) ([8]; Day 8)	enhancement factor (viability % of most effective monotherapy divided by viability % of combination) ([9]; Day 5)	enhancement factor (viability % of most effective monotherapy divided by viability % of combination) ([9]; Day 8)	enhancement factor (viability % of most effective monotherapy divided by viability % of combination) ([10]; Day 5)	enhancement factor (viability % of most effective monotherapy divided by viability % of combination) ([10]; Day 8)	enhancement factor (viability % of most effective monotherapy divided by viability % of combination) ([11]; Day 5)	enhancement factor (viability % of most effective monotherapy divided by viability % of combination) ([11]; Day 8)	enhancement factor (viability % of most effective monotherapy divided by viability % of combination) ([12]; Day 5)	further results
C/C(=C\C(=O)Nc1ccccc1C(=O)O)c1ccc2ccccc2c1 [BIBR1532]	1.787	1.498	1.322	2.162	1.526	1.414	2.661	1.364	1.936	0.969	0.469	0.641	2.457	1.361	1.214	1.383	1.879	1.767	2.954	1.752	enhancement factor (viability % of most effective monotherapy divided by viability % of combination) [6]: 1.110; enhancement factor (viability % of most effective monotherapy divided by viability % of combination) ([12]; Day 8): 1.367; enhancement factor (viability % of most effective monotherapy divided by viability % of combination) ([13]; Day 5): 1.282; enhancement factor (viability % of most effective monotherapy divided by viability % of combination) ([13]; Day 8): 1.713; enhancement factor (viability % of most effective monotherapy divided by viability % of combination) ([14]; Day 5): 2.499; enhancement factor (viability % of most effective monotherapy divided by viability % of combination) ([14]; Day 8): 1.168; enhancement factor (viability % of most effective monotherapy divided by viability % of combination) [15]: 0.959; enhancement factor (viability % of most effective monotherapy divided by viability % of combination) ([16]; Day 8): 1.247; enhancement factor (viability % of most effective monotherapy divided by viability % of combination) ([17]; Day 8): 1.065; enhancement factor (viability % of most effective monotherapy divided by viability % of combination) ([18]; Day 5): 0.909; enhancement factor (viability % of most effective monotherapy divided by viability % of combination) ([19]; Day 5): 2.900; enhancement factor (viability % of most effective monotherapy divided by viability % of combination) ([19]; Day 8): 1.010
C[C@]1(c2nc3c(C(N)=O)cccc3[nH]2)CCCN1 [ABT-888]	1.394	1.359	0.922	1.053	1.321	1.248	1.055	1.256	0.991	1.105	1.201	0.933	0.812	1.146	1.102	1.112	1.113	1.096	1.052	1.084	enhancement factor (viability % of most effective monotherapy divided by viability % of combination) ([12]; Day 8): 1.044; enhancement factor (viability % of most effective monotherapy divided by viability % of combination) ([13]; Day 5): 1.275; enhancement factor (viability % of most effective monotherapy divided by viability % of combination) ([13]; Day 8): 1.322; enhancement factor (viability % of most effective monotherapy divided by viability % of combination) ([20]; Day 5): 1.388; enhancement factor (viability % of most effective monotherapy divided by viability % of combination) ([20]; Day 8): 1.631; enhancement factor (viability % of most effective monotherapy divided by viability % of combination) ([14]; Day 5): 1.175; enhancement factor (viability % of most effective monotherapy divided by viability % of combination) ([14]; Day 8): 1.148; enhancement factor (viability % of most effective monotherapy divided by viability % of combination) [15]: 1.106; enhancement factor (viability % of most effective monotherapy divided by viability % of combination) ([16]; Day 5): 1.175; enhancement factor (viability % of most effective monotherapy divided by viability % of combination) ([16]; Day 8): 1.810; enhancement factor (viability % of most effective monotherapy divided by viability % of combination) ([17]; Day 5): 1.245; enhancement factor (viability % of most effective monotherapy divided by viability % of combination) ([17]; Day 8): 1.933; enhancement factor (viability % of most effective monotherapy divided by viability % of combination) ([18]; Day 5): 2.994; enhancement factor (viability % of most effective monotherapy divided by viability % of combination) ([18]; Day 8): 5.030; enhancement factor (viability % of most effective monotherapy divided by viability % of combination) ([19]; Day 5): 1.134; enhancement factor (viability % of most effective monotherapy divided by viability % of combination) ([19]; Day 8): 1.319
